Patent publication US20250009779A1 (priority 2021, published 2025)
Entries after “also recorded” stand apart in the source; their conditions may differ.

Experiments:
pDCs [1] = type: cell-based, human
pDCs [2] = type: cell-based, human; remark: listed apart in the source
pDCs [3] = type: cell-based, human; remark: listed apart in the source
pDCs [4] = tested on: pDCs
macrophages [5] = test: Immunoblot of NF-κB and MAPKs signaling in macrophages; type: cell-based, human; settings: whole cell lysates, FIG. 20B
macrophages [6] = type: cell-based, human
macrophages [7] = test: FAIRE assay on promoter regions of IL6, TNF and IL12p40 in macrophages; type: cell-based, human; settings: cells primed with IFN-α 24 hours, then LPS 3 hours, FIG. 4G
pDCs [8] = type: cell-based, human; remark: listed apart in the source

## N[C@@H](CO)C(=O)O [L-serine]
pDCs [1]
  IFN-α secretion by TLR9-activated pDCs: unaltered

## Cc1ccc(OCCN(C)C(=O)Cn2cc(NC(=O)CCOc3ccccc3)cn2)cc1 [IXA4]
pDCs [2]
  PHGDH gene expression: induced

## O.O=C([O-])CCC(=O)C(=O)[O-].[Na+].[Na+] [α-KG, α-ketoglutaric acid disodium salt hydrate]
pDCs [3]
  intracellular ATP levels under ER stress: restored

## O=C(O)CCCCC(CCSCc1ccccc1)SCc1ccccc1 (centres unmarked) [CPI-613, 6,8-bis-benzylthio-octanoic acid]
pDCs [4]
  cell viability: no effect
pDCs [3]
  intracellular ATP levels in TLR9-activated pDCs: reduced
pDCs [2]
  XBP1 splicing: no effect
  expression of ISGs such as GBP1, IRF7, ISG54, MxB, CXCL10: inhibited
  expression of PHGDH: no effect
pDCs [2]; 5 h
  expression of IFN-α (IFNA): inhibited
pDCs [1]
  secretion of IFN-α: inhibited

## IFN-α
Macrophages [5]
  TLR4-induced IKBα degradation or activation of MAPKs ERK and p38: minimal effects; also recorded: does not increase
Macrophages [6]
  LPS-induced response in macrophages: TNF, IL6, IL1B, IL12B and IFNB: superinduction; also recorded: increases
  TLR4 expression or of the 2 subunits of the IFNAR in the macrophages: little change
  chemokine receptors expression on macrophages: significant impact
  inflammatory genes (IL-1β, IL-12p40, IFN-β and CXCL10) expression: dose-dependent manner
Macrophages [7]
  chromatin accessibility of IL6 and TNF promoters: significantly increased; also recorded: increase

## CC(=O)C(=O)[O-].[Na+] [pyruvate, sodium pyruvate]
pDCs [3]
  intracellular ATP levels under ER stress: restored
pDCs [2]
  IFNA expression by pDCs under ER stress condition: restore

## C/C=C(/C)C(=O)O[C@H]1C(C)=C2[C@H]([C@@H]1OC(=O)CCCCCCC)[C@@](C)(OC(C)=O)C[C@H](OC(=O)CCC)[C@@]1(O)[C@H]2OC(=O)[C@@]1(C)O [thapsigargin]
pDCs [2]
  gene encoding phosphoglycerate dehydrogenase (PHGDH) expression: markedly induced
  induction of serine amino acid biosynthesis genes: induction

## Cc1cc(C)nc(NC(=S)N2CCN(Cc3ccc(C(F)(F)F)cc3)CC2)c1 [NCT-503]
pDCs [8]
  intracellular pyruvate levels in ER stressed-pDCs: restored
pDCs [3]
  intracellular ATP levels under ER stress: restored
pDCs [2]
  IFNA expression by TLR9-activated pDCs facing ER stress: restored
